# Data reported in US11026426B2, “Oxadiazole and phenol derivatives as antibacterial and/or herbicidal agents” (NORTHERN ILLINOIS RESEARCH FOUNDATION, priority 2017, dated 2021).
# Read-outs that look alike come from different tables or passages of the source.
# Assays:
# Ec IspD [1] = biological target: T1, Ec IspD (Escherichia coli, UniProt Q46893); assay: EnzChek enzymatic activity assay Ec IspD; format: biochemical
# Protocol: The EnzChek® assay has a phosphate sensitivity of 2-150 μM. To ensure there is no interference caused by assay components, three standards were performed on each plate: buffer only, without CTP and without MEP.
# Here, for the plate-based assay, IspD converts MEP to CDP-ME pyrophosphate, which in turn is converted to inorganic phosphate (Pi) with the enzyme inorganic pyrophosphatase. The EnzChek® Phosphate Assay kit follows the formation of the inorganic phosphate through a reaction with 2-amino-6-mercapto-7-methylpurine riboside (MESG) and the enzyme purine nucleoside phosphorylase (PNP). This reaction converts the MESG into ribose 1-phosphate and 2-amino-6-mercapto-7-methylpurine resulting in a spectrophotometric shift in a maximum absorbance from 330 nm to 360 nm. Reactions were performed in 50 μL final volumes in 96-well clear flat bottom plates, and were initiated by addition of 50 ng purified Ec IspD. Absorbance at 360 nm was measured every 31 seconds for 20 minutes on a Synergy 2 Multi-Mode plate reader (BioTek), preheated to 37° C. Final concentration of reagents was as follows: 1×EnzChek® reaction buffer (50 mM Tris pH 7.5, 1 mM magnesium chloride (MgCl2), 100 μM sodium azide (NaN3)), 0.2 mM MESG, 1 U/ml PNP, 1 U/mL inorganic Pyrophosphatase (NEB), 200 mM CMP (Sigma), and 50 μM MEP (Echelon).
# Ec IspD [2] = biological target: T1, Ec IspD; assay: Thermal shift (DSF) screening against Ec IspD; format: binding; details: for change in the observed melting temperature of Ec IspD: MicroSource Spectrum screening
# Protocol: The library based screening technique in conjunction with the thermal shift assay was implemented to evaluate compounds from Spectrum collection.
# All DSF experiments were performed in 50 mM phosphate buffer at pH 7.4, 150 mM NaCl, 1×SYPRO orange, 2% DMSO and 200 to 1000 nM of the enzyme with a total volume of 25 μL. Final enzyme concentrations used were […] for Ec IspD and 0.5 μM for Bt IspD. Samples were measured on a Bio-Rad iQ5 Real-Time PCR (Bio-Rad Life Sciences) using a temperature range of 25 to 95° C. at a rate of 1° C. per minute with the fluorescence measured every 0.5° C. every 10 seconds with wavelengths of 530 and 570 nm used for excitation and emission, respectively. The melting temperature (Tm value) was determined from the first derivative of the graph of relative fluorescence units vs. temperature.
# Bt IspD = Bt IspD (Burkholderia thailandensis, UniProt Q2SWT6); format: binding
# Protocol: ITC studies were performed with a Microcal VP-ITC titration calorimeter (Malvern Instruments). Proteins were dialyzed overnight against four liters of buffer (20 mM sodium phosphate, 150 mM NaCl, pH 7.4). Compounds were dissolved in DMSO and brought to concentration with the dialysis buffer, with a maximum DMSO concentration of 10% by volume, and centrifuged at 10,000 RPM for 10 minutes. DMSO concentrations were matched between the protein and ligand. The dialysis buffer was used for all sample dilutions to ensure buffers matching between the titrant and titrate, thus minimizing the excess heat due to buffer mismatch. The Pace method was utilized for the determination of the extinction coefficients at 280 nm for Ec IspD (30,940 M^−1 cm^−1) and Bt IspD (41,940 M^−1 cm^−1). Cytidine triphosphate's extinction coefficient was 9,100 M^−1 cm^−1. The absorbance values of protein and CTP solutions were determined using the NanoDrop (in triplicate). All other compound concentrations were determined by dry weight. ITC experiments were performed with IspD in the cell and ligand in the syringe, which is at 100 times the concentration of the sample in the cell due to the low predicted affinities for IspD.
# The initial injection volume was 2 μL (omitted) followed by 27 10 μL injections, every 240 seconds. Samples were run at 25° C., at pH 7.4, with a stirring speed of 307 RPM. Dilution runs were performed to allow determination of background heats caused by solution mismatch and instrument noise. Dilution runs were performed with ligand (at the same concentration as in the experiment run) in the syringe titrated into the dialysis buffer in the cell. Data were fit using OriginPro 7 with the ITC add-on by the manufacturer.
# ITC studies were performed to observe the dissociation constant along with thermodynamic properties of the reactant CTP with Bt IspD.
# Pseudomonas aeruginosa = assay: Antibacterial preliminary screening PA; format: cell-based; details: for PA score: score 0-3
# Bacillus cereus = assay: Antibacterial preliminary screening BC; format: cell-based; details: score 0-3; note: key: 0 represents no inhibition; 3 is comparable to commercial antibiotic control
# AtIspD = AtIspD (Arabidopsis thaliana, UniProt P69834); assay: University of Hamburg photometric enzymatic inhibition assay AtIspD; format: biochemical; details: read-out: AtIspD IC50
# How it was run: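 Coupled photometric assay: 2.4 mU AtIspD with 1 mM (2R,3S)-2,3-dihydroxy-4-oxopentyl phosphate, 2.1 mM CTP, excess IspE (0.4 U), ATP, pyruvate kinase/lactate dehydrogenase and 460 μM NADH. Run in 100 mM Tris-HCl pH 8.0, 10 mM MgCl2, 1 mM DTT, 1.1% DMSO at 27 °C, monitored photometrically.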
# [3] = system: Corynebacterium pseudodiphtheriae; assay: Antibacterial preliminary screening CP; format: cell-based; details: score 0-3;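 note: 0 is no inhibition and 3 matches the commercial antibiotic control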
# Mycobacterium smegmatis = assay: Antibacterial preliminary screening MS; format: cell-based; details: score 0-3; note: key: 0 represents no inhibition; 3 is comparable to commercial antibiotic control
# LeIspE = LeIspE (Solanum lycopersicum, UniProt P93841); assay: University of Hamburg photometric enzymatic inhibition assay LeIspE; format: biochemical, Lycopersicon esculentum; details: read-out: LeIspE IC50
# How it was run: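 Photometric coupled assay with pyruvate kinase/lactate dehydrogenase following NADH (460 μM). Mix: 100 mM Tris-HCl pH 8.0, 10 mM MgCl2, 1 mM DTT, 2.5 mM phosphoenolpyruvate, 2 mM ATP, 1 mM 4-diphosphocytidyl-2-C-methylerythritol, 1.1% DMSO, 2.4 mU IspE; incubated at 27° C.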
# lettuce seeds = assay: Lettuce leaf assay; format: in vivo; design: key: 0 (no effect); 5(complete inhibition or bleaching); details: ranking 0-5
# How it was run: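 Qualitative assay: compounds in volatile organic solvent applied to filter paper in a petri dish, solvent evaporated, lettuce seeds and 5 mL water added to give test concentrations. Germination, root development and leaf bleaching scored days 3 and 4, ranked 0 (no effect) to 5 (complete inhibition or bleaching).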
# [4] = biological target: Lycopersicon esculentum IspE (LeIspE) (Solanum lycopersicum, UniProt P93841); assay: Thermal shift assay against LeIspE; format: binding
# Klebsiella pneumonia = assay: Antibacterial preliminary screening KP; format: cell-based; details: score 0-3; note: key: 0 represents no inhibition; 3 is comparable to commercial antibiotic control
# E. coli IspD = E. coli IspD (Escherichia coli, UniProt Q46893); assay: IspD assay (Washington University, EnzCheck phosphate) EcIspD; format: biochemical; details: up to 100 μM; bar graph at 12.5 and 100 μM
# Protocol: Compounds were tested against IspD from Escherichia coli and Plasmodium falciparum. The assay measured activity through monitoring phosphate levels released by IspD enzyme over time using conditions published previously. The assay utilized the EnzCheck phosphate assay kit to quantify phosphate released by IspD. Reactions were done in a 96-well plate with each well containing a final volume of 50 μL. Concentrations of reagents were as follows: 100 mM NaCl, 25 mM Tris at pH 7.0, 7.5 mM MgCl2, 1 mM dithiothreitol, 1 U/mL purine nucleoside phosphorylase, and 0.1 U/mL yeast inorganic pyrophosphatase, 50 μM CTP, 500 μM MEP, 0.1% DMSO, and 0.2 mM 2-Amino-6-mercapto-7-methyl puring riboside. Reactions with EclspD used 2 nM EclspD and reactions with PfIspD used 50 nM PfIspD. Reactions involved pre-warming the enzyme and buffers to 37° C. with different inhibitor concentrations followed by the addition of the purified MEP substrate. Absorbance was measured at 360 nm over time and values were used to create regression analysis curves from three trials and values were converted to (μM MEP)(μM enzyme)^−1s^−1 using a standard phosphate curve. These values were then used to identify percent activity compared to enzyme activity without the inhibitor. Results are indicated.
# [5] = system: Burkholderia thailandensis; format: cell-based; details: preliminary screening, score 0-3
# [6] = biological target: T2, Mycobacterium tuberculosis IspD (MtIspD) (Mycobacterium tuberculosis, UniProt P9WKG9); assay: Thermal shift assay against MtIspD; format: binding
# T2 sequence (P9WKG9 1-231): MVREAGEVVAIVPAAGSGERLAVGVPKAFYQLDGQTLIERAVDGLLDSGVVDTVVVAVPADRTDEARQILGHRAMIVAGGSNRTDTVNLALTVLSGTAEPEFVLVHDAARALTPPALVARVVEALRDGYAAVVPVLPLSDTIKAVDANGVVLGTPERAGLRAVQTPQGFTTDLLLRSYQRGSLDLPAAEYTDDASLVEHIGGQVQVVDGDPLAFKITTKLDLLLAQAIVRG
# Escherichia coli = assay: Antibacterial preliminary screening EC; format: cell-based; details: score 0-3; note: key: 0 represents no inhibition; 3 is comparable to commercial antibiotic control
# Corynebacterium xerosis = assay: Antibacterial preliminary screening CX; format: cell-based; details: score 0-3; note: key: 0 represents no inhibition; 3 is comparable to commercial antibiotic control
# AtIspF = AtIspF (Arabidopsis thaliana, UniProt Q9CAK8); assay: University of Hamburg photometric enzymatic inhibition assay AtIspF; format: biochemical; details: read-out: AtIspF IC50
# How it was run: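 Coupled photometric assay (CMP kinase/pyruvate kinase/lactate dehydrogenase, NADH consumption) with 2.4 mU AtIspF and 1 mM 4-diphosphocytidyl-2C-methylerythritol 2-phosphate, 2 mM ATP, in 100 mM Tris-HCl pH 8.0, 10 mM MgCl2, 1.1% DMSO. Monitored at 27 °C.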
# Micrococcus luteus = assay: Antibacterial preliminary screening ML; format: cell-based; details: score 0-3; note: key: 0 represents no inhibition; 3 is comparable to commercial antibiotic control
# [7] = biological target: Mycobacterium paratuberculosis IspD (MpIspD) (Mycolicibacterium paratuberculosis, UniProt Q743W5); assay: Thermal shift assay against MpIspD; format: binding; details: MpIspD
# Chain of Mycobacterium paratuberculosis IspD (MpIspD) (Q743W5 whole entry): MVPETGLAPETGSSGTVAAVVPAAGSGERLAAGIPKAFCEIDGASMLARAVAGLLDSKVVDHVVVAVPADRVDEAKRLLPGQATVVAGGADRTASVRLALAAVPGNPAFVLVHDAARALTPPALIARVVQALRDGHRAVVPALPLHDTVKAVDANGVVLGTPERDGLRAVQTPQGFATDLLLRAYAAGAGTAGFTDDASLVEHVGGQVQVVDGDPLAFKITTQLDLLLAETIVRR
# Chain of AtIspF (Q9CAK8 53-231): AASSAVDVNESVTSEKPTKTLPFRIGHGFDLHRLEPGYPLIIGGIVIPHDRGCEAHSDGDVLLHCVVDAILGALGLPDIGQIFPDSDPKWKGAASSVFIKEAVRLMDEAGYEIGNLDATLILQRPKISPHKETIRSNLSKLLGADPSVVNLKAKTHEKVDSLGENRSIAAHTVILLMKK
# Chain of Bt IspD (Q2SWT6 whole entry): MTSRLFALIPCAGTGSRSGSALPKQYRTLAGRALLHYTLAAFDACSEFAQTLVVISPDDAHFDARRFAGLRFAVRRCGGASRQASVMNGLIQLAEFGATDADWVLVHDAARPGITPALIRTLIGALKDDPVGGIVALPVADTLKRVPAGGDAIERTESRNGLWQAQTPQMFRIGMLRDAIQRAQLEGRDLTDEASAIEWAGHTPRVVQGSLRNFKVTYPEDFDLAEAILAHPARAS
# Chain of Lycopersicon esculentum IspE (LeIspE) (P93841 89-401): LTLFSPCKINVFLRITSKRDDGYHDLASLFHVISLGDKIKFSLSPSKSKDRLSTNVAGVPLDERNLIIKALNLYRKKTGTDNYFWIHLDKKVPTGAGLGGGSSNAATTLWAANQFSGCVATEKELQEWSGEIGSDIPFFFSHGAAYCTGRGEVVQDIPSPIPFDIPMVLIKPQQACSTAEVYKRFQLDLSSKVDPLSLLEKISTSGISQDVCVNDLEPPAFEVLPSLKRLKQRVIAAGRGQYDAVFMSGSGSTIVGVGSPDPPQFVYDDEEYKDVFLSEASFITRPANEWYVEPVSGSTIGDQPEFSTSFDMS
# Chain of LeIspE (P93841 89-401): as above
# Chain of AtIspD (P69834 62-302): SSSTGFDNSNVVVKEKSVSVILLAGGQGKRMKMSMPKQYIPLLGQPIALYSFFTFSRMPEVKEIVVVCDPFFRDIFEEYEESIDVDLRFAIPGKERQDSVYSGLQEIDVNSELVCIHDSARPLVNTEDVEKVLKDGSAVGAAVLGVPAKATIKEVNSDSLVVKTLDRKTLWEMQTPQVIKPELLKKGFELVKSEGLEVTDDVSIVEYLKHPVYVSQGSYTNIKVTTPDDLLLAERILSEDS
# T1 sequence (Q46893 whole entry): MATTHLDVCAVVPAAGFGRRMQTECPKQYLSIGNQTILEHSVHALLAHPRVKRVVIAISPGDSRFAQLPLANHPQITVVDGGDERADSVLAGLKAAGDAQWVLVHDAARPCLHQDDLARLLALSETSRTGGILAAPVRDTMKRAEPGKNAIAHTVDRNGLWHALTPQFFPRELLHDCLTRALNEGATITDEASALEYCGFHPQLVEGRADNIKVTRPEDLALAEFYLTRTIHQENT
# Chain of E. coli IspD (Q46893 whole entry): as above
compound,measurement,setting,value
"C[CH2][Hg][S]c1ccccc1C(=O)[O-].[Na+] [thimerosal, reference compound]",IC50,"Ec IspD [1]; EnzChek assay, read-out: Ec IspD IC50",381 ± 12 µM
same,change in the observed melting temperature of Ec IspD,Ec IspD [2],+3.53 °C
[O-][n+]1ccccc1[S][Zn][S]c1cccc[n+]1[O-] [Zinc Pyrathione],change in the observed melting temperature of Ec IspD,Ec IspD [2],−7.72 °C
"[O-][n+]1ccccc1S [2-mercaptopyradine-N-oxide, 2-mercaptopyridine-N-oxide]",effect on thermal stability of Ec IspD,Ec IspD [2],did not have an effect on the thermal stability
CC(=O)[O-].CC(=O)[O-].[Cd+2] [cadmium acetate],change in the observed melting temperature of Ec IspD,Ec IspD [2],−13.53 °C
"Nc1ccn([C@@H]2O[C@H](COP(=O)(O)OP(=O)(O)OP(=O)(O)O)[C@@H](O)[C@H]2O)c(=O)n1 [CTP, Cytidine triphosphate]","KD app (ITC, words)",Bt IspD,in the millimolar range
same,entropic contribution −TΔS (ITC),Bt IspD,5.6±1.838
same,ΔH° (ITC),Bt IspD; stoichiometry fixed at two CTPs per dimer,-6.991 ± 1.749 kcal/mol
"c1ccc2[nH]c(-c3nnc(C4CCCC4)o3)cc2c1 [HGN-252, 2-cyclopentyl-5-(1H-indol-2-yl)-1,3,4-oxadiazole]",PA score,Pseudomonas aeruginosa,0
same,BC score,Bacillus cereus,0
same,IC50,AtIspD,> 1000 µM
same,CP score,[3],0
same,MS score,Mycobacterium smegmatis,0
same,IC50,LeIspE,> 1000 µM
same,Bleaching,lettuce seeds; 0.5 mM,0
same,Germination,lettuce seeds; 0.5 mM,1
same,Root Dev.,lettuce seeds; 0.5 mM,0
same,Bleaching,lettuce seeds; 1.0 mM,0
same,Germination,lettuce seeds; 1.0 mM,2
same,Root Dev.,lettuce seeds; 1.0 mM,0
same,LeIspE melting point change,[4],−2.50 °C
same,LeIspE melting temp,[4],47.00 °C
same,melting point,,150 to 154 °C
same,KP score,Klebsiella pneumonia,0
same,inhibition of E. coli IspD activity,E. coli IspD,significant activity
same,BT score,[5],0
same,MtIspD melting temp,[6],49.5 °C
same,EC score,Escherichia coli,0
same,CX score,Corynebacterium xerosis,0
same,IC50,AtIspF,> 1000 µM
same,ML score,Micrococcus luteus,0
"FC(F)(F)c1nnc(-c2cc3ccccc3[nH]2)o1 [HGN-211, 2-(1H-indol-2-yl)-5-(trifluoromethyl)-1,3,4-oxadiazole]",increase in melting point over HGN-207,[7],0.3 °C
same,PA score,Pseudomonas aeruginosa,0
same,BC score,Bacillus cereus,0
same,IC50,AtIspD,> 1000 µM
same,CP score,[3],0
same,MS score,Mycobacterium smegmatis,0
same,IC50,LeIspE,> 1000 µM
same,Bleaching,lettuce seeds; 0.5 mM,0
same,Germination,lettuce seeds; 0.5 mM,1
same,Root Dev.,lettuce seeds; 0.5 mM,0
same,Bleaching,lettuce seeds; 1.0 mM,0
same,Germination,lettuce seeds; 1.0 mM,2
same,Root Dev.,lettuce seeds; 1.0 mM,0
same,LeIspE melting point change,[4],−0.75 °C
same,LeIspE melting temp,[4],48.75 °C
same,melting point,,182 to 184 °C
same,KP score,Klebsiella pneumonia,0
same,BT score,[5],0
same,MtIspD melting point change,[6],1.3 °C
same,MtIspD melting temp,[6],49.3 °C
same,EC score,Escherichia coli,0
same,CX score,Corynebacterium xerosis,0
same,IC50,AtIspF,> 1000 µM
same,ML score,Micrococcus luteus,0
CC(C)c1cc2c(c(O)c1O)[C@@]1(C(=O)O)CCCC(C)(C)[C@@H]1CC2 [carnosic acid],IC50,Ec IspD [1],794 ± 100 µM
O=C(/C=C/c1ccc(O)cc1)c1ccc(O)cc1O [isoliquiritigenin],IC50,Ec IspD [1],279 ± 12 µM
C[CH2][Hg][Cl] [ethyl mercuric chloride],effect on thermal stability of Ec IspD,Ec IspD [2],affected the stability of the enzyme
"C(=C\c1nnc(-c2nc3ccccc3s2)o1)/c1ccccc1 [HGN-335, (E)-2-(benzo[d]thiazol-2-yl)-5-styryl-1,3,4-oxadiazole]",effectiveness against Pseudomonas aeruginosa,Pseudomonas aeruginosa,slightly effective
same,PA score,Pseudomonas aeruginosa,1
same,BC score,Bacillus cereus,0
same,IC50,AtIspD,> 500 µM
same,CP score,[3],0
same,MS score,Mycobacterium smegmatis,0
same,IC50,LeIspE,> 500 µM
same,Bleaching,lettuce seeds; 0.1 mM,0
same,Germination,lettuce seeds; 0.1 mM,0
same,Root Dev.,lettuce seeds; 0.1 mM,0
same,Bleaching,lettuce seeds; 0.2 mM,0
same,Germination,lettuce seeds; 0.2 mM,0
same,Root Dev.,lettuce seeds; 0.2 mM,0
same,LeIspE melting point change,[4],−1.50 °C
same,LeIspE melting temp,[4],48.00 °C
same,melting point,,202 to 204 °C
same,KP score,Klebsiella pneumonia,0
same,BT score,[5],0
same,MtIspD melting point change,[6],0.5 °C
same,MtIspD melting temp,[6],48.5 °C
same,EC score,Escherichia coli,0
same,CX score,Corynebacterium xerosis,0
same,IC50,AtIspF,> 500 µM
same,ML score,Micrococcus luteus,0
